# Patent US20150105252A1, “SUBSTITUTED PYRAZOLES AS HERBICIDES” (E I DU PONT DE NEMOURS AND COMPANY, priority 2013, published 2015)
# Assays:
# crabgrass, large = test: Test A preemergence; assay type: in vivo, Digitaria sanguinalis; conditions: preemergence
# Outline: (§1)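 Growth medium: loam soil blended with sand. Preemergence treatment used a directed soil spray right after planting; postemergence treatment targeted seedlings at one to two leaves (2–10 cm height). Response was judged by eye relative to untreated plants about 10 days later on a 0–100 control scale.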
# wheat [1] = test: Test A preemergence; assay type: in vivo, Triticum aestivum; conditions: preemergence
# Outline: as §1
# wheat [2] = test: Test A postemergence; assay type: in vivo, Triticum aestivum
# Outline: as §1
# corn = test: Test C preemergence; assay type: in vivo, Zea mays; conditions: for Plant response rating (scale of 0 to 100), Corn: Preemergence, 250 g ai/ha; for Corn plant response rating: preemergence
# Outline: (§2)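 Visual control ratings on a 0–100 scale (100 = complete control) made against untreated controls after 13 to 15 days in greenhouse. Compounds applied in surfactant-containing solvent mixture, either preemergence to loam/sand-sown seeds or postemergence to 1- to 4-leaf plants (2–18 cm) in peat medium.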
# lambsquarters = test: Test C preemergence; assay type: in vivo, Chenopodium album; conditions: for Plant response rating (scale of 0 to 100), Lambsquarters: Preemergence, 250 g ai/ha; for Lambsquarters plant response rating: preemergence
# Outline: as §2
# nutsedge, yellow = test: Test C preemergence; assay type: in vivo, Cyperus esculentus; conditions: for Plant response rating (scale of 0 to 100), Nutsedge, Yellow: Preemergence, 250 g ai/ha; for Nutsedge, Yellow plant response rating: preemergence
# Outline: as §2
# waterhemp = test: Test C preemergence; assay type: in vivo, Amaranthus rudis; conditions: for Plant response rating (scale of 0 to 100), Waterhemp: Preemergence, 250 g ai/ha; for Waterhemp plant response rating: preemergence
# Outline: as §2
# velvetleaf [3] = test: Test C preemergence; assay type: in vivo, Abutilon theophrasti; conditions: for Plant response rating (scale of 0 to 100), Velvetleaf: Preemergence, 250 g ai/ha; for Velvetleaf plant response rating: preemergence
# Outline: as §2
# blackgrass = test: Test C postemergence; assay type: in vivo, Alopecurus myosuroides; conditions: for Plant response rating (scale of 0 to 100 where 0 is no effect and 100 is complete control), Blackgrass: Postemergence, 31 g ai/ha, visually evaluated after 13 to 15 days; for Blackgrass plant response rating / Plant response rating, Blackgrass: postemergence; for Blackgrass plant response rating: 62 g ai/ha, scale 0 to 100
# Outline: as §2
# soybean = test: Test C postemergence; assay type: in vivo, Glycine max; conditions: for Plant response rating (scale of 0 to 100 where 0 is no effect and 100 is complete control), Soybean: Postemergence, 31 g ai/ha, visually evaluated after 13 to 15 days; for Soybean plant response rating / Plant response rating, Soybean: postemergence; for Soybean plant response rating: 62 g ai/ha, scale 0 to 100
# Outline: as §2
# barnyardgrass = test: Test C postemergence; assay type: in vivo, Echinochloa crus-galli; conditions: for Plant response rating (scale of 0 to 100 where 0 is no effect and 100 is complete control), Barnyardgrass: Postemergence, 31 g ai/ha, visually evaluated after 13 to 15 days; for Barnyardgrass plant response rating / Plant response rating, Barnyardgrass: postemergence; for Barnyardgrass plant response rating: 62 g ai/ha, scale 0 to 100
# Outline: as §2
# oilseed rape = test: Test C postemergence; assay type: in vivo, Brassica napus; conditions: for Plant response rating (scale of 0 to 100 where 0 is no effect and 100 is complete control), Oilseed Rape: Postemergence, 31 g ai/ha, visually evaluated after 13 to 15 days; for Oilseed Rape plant response rating / Plant response rating, Oilseed Rape: postemergence; for Oilseed Rape plant response rating: 62 g ai/ha, scale 0 to 100
# Outline: as §2
# kochia = test: Test C postemergence; assay type: in vivo, Kochia scoparia; conditions: for Plant response rating (scale of 0 to 100 where 0 is no effect and 100 is complete control), Kochia: Postemergence, 31 g ai/ha, visually evaluated after 13 to 15 days; for Kochia plant response rating / Plant response rating, Kochia: postemergence; for Kochia plant response rating: 62 g ai/ha, scale 0 to 100
# Outline: as §2
# velvetleaf [4] = test: Test C postemergence; assay type: in vivo, Abutilon theophrasti; conditions: for Plant response rating (scale of 0 to 100 where 0 is no effect and 100 is complete control), Velvetleaf: Postemergence, 31 g ai/ha, visually evaluated after 13 to 15 days; for Velvetleaf plant response rating / Plant response rating, Velvetleaf: postemergence; for Velvetleaf plant response rating: 62 g ai/ha, scale 0 to 100
# Outline: as §2
# [5] = 125 g ai/ha, visual injury, 0 to 100 scale, approx. 10 days
# [6] = 500 g ai/ha, visual injury after approx. 10 days, 0 to 100 scale (0 no effect, 100 complete control)
# [7] = Postemergence, 500 g ai/ha, visual rating after approx. 10 days, 0 to 100 scale (0 no effect, 100 complete control)
# [8] = postemergence, 125 g ai/ha, about 10 days, visual rating on 0 to 100 scale (0 no effect, 100 complete control)
# [9] = 31 g ai/ha, visual rating, scale 0 to 100 (0 no effect, 100 complete control), 13 to 15 days
# [10] = 62 g ai/ha, scale 0 to 100 (0 no effect, 100 complete control), 13 to 15 days
# [11] = 125 g ai/ha, scale 0 to 100, 0 is no effect, 100 is complete control
# [12] = 250 g ai/ha, scale 0 to 100 (0 no effect, 100 complete control)
# [13] = 125 g ai/ha, scale 0 to 100, 0 no effect, 100 complete control
structure (smiles),measurement,setting,value
CCc1cc(C(=O)NCC(F)(F)F)nn1Cc1nc(C(F)(F)F)nn1C [Compound 107],"Crabgrass, Large plant response rating","crabgrass, large; [5]",100
same,"Crabgrass, Large plant response rating","crabgrass, large; [6]",100
same,Wheat plant response rating,wheat [1]; [5],10
same,Wheat plant response rating,wheat [1]; [6],90
same,Wheat plant response rating,wheat [2]; [7],80
same,Wheat plant response rating,wheat [2]; [8],30
same,"Plant response rating (scale of 0 to 100), Corn",corn,95
same,Corn plant response rating,corn; [9],30
same,Corn plant response rating,corn; [10],45
same,Corn plant response rating,corn; [11],90
same,"Plant response rating (scale of 0 to 100), Lambsquarters",lambsquarters,100
same,Lambsquarters plant response rating,lambsquarters; [9],100
same,Lambsquarters plant response rating,lambsquarters; [10],100
same,Lambsquarters plant response rating,lambsquarters; [11],100
same,"Plant response rating (scale of 0 to 100), Nutsedge, Yellow","nutsedge, yellow",100
same,"Nutsedge, Yellow plant response rating","nutsedge, yellow; [9]",15
same,"Nutsedge, Yellow plant response rating","nutsedge, yellow; [10]",60
same,"Nutsedge, Yellow plant response rating","nutsedge, yellow; [11]",85
same,"Plant response rating (scale of 0 to 100), Waterhemp",waterhemp,100
same,Waterhemp plant response rating,waterhemp; [9],100
same,Waterhemp plant response rating,waterhemp; [10],100
same,Waterhemp plant response rating,waterhemp; [11],100
same,"Plant response rating (scale of 0 to 100), Velvetleaf",velvetleaf [3],100
same,Velvetleaf plant response rating,velvetleaf [3]; [9],60
same,Velvetleaf plant response rating,velvetleaf [3]; [10],85
same,Velvetleaf plant response rating,velvetleaf [3]; [11],100
same,"Plant response rating (scale of 0 to 100 where 0 is no effect and 100 is complete control), Blackgrass",blackgrass,10
same,Blackgrass plant response rating,blackgrass,10
same,"Plant response rating, Blackgrass",blackgrass; [12],35
same,"Plant response rating, Blackgrass",blackgrass; [13],15
same,"Plant response rating (scale of 0 to 100 where 0 is no effect and 100 is complete control), Soybean",soybean,20
same,Soybean plant response rating,soybean,50
same,"Plant response rating, Soybean",soybean; [12],90
same,"Plant response rating, Soybean",soybean; [13],50
same,"Plant response rating (scale of 0 to 100 where 0 is no effect and 100 is complete control), Barnyardgrass",barnyardgrass,0
same,Barnyardgrass plant response rating,barnyardgrass,0
same,"Plant response rating, Barnyardgrass",barnyardgrass; [12],30
same,"Plant response rating, Barnyardgrass",barnyardgrass; [13],5
same,"Plant response rating (scale of 0 to 100 where 0 is no effect and 100 is complete control), Oilseed Rape",oilseed rape,5
same,Oilseed Rape plant response rating,oilseed rape,60
same,"Plant response rating, Oilseed Rape",oilseed rape; [12],80
same,"Plant response rating, Oilseed Rape",oilseed rape; [13],60
same,"Plant response rating (scale of 0 to 100 where 0 is no effect and 100 is complete control), Kochia",kochia,50
same,Kochia plant response rating,kochia,85
same,"Plant response rating, Kochia",kochia; [12],90
same,"Plant response rating, Kochia",kochia; [13],85
same,"Plant response rating (scale of 0 to 100 where 0 is no effect and 100 is complete control), Velvetleaf",velvetleaf [4],30
same,Velvetleaf plant response rating,velvetleaf [4],30
same,"Plant response rating, Velvetleaf",velvetleaf [4]; [12],50
same,"Plant response rating, Velvetleaf",velvetleaf [4]; [13],35
CCCNC(=O)c1cc(CC)n(Cc2nc(C(F)(F)F)nn2C)n1 [Compound 109],"Crabgrass, Large plant response rating","crabgrass, large; [5]",100
same,"Crabgrass, Large plant response rating","crabgrass, large; [6]",100
same,Wheat plant response rating,wheat [1]; [5],30
same,Wheat plant response rating,wheat [1]; [6],90
same,Wheat plant response rating,wheat [2]; [7],80
same,Wheat plant response rating,wheat [2]; [8],50
same,"Plant response rating (scale of 0 to 100), Corn",corn,100
same,Corn plant response rating,corn; [9],25
same,Corn plant response rating,corn; [10],85
same,Corn plant response rating,corn; [11],95
same,"Plant response rating (scale of 0 to 100), Lambsquarters",lambsquarters,100
same,Lambsquarters plant response rating,lambsquarters; [9],100
same,Lambsquarters plant response rating,lambsquarters; [10],100
same,Lambsquarters plant response rating,lambsquarters; [11],100
same,"Plant response rating (scale of 0 to 100), Nutsedge, Yellow","nutsedge, yellow",60
same,"Nutsedge, Yellow plant response rating","nutsedge, yellow; [9]",5
same,"Nutsedge, Yellow plant response rating","nutsedge, yellow; [10]",25
same,"Nutsedge, Yellow plant response rating","nutsedge, yellow; [11]",40
same,"Plant response rating (scale of 0 to 100), Waterhemp",waterhemp,100
same,Waterhemp plant response rating,waterhemp; [9],75
same,Waterhemp plant response rating,waterhemp; [10],100
same,Waterhemp plant response rating,waterhemp; [11],100
same,"Plant response rating (scale of 0 to 100), Velvetleaf",velvetleaf [3],100
same,Velvetleaf plant response rating,velvetleaf [3]; [9],10
same,Velvetleaf plant response rating,velvetleaf [3]; [10],80
same,Velvetleaf plant response rating,velvetleaf [3]; [11],100
same,"Plant response rating (scale of 0 to 100 where 0 is no effect and 100 is complete control), Blackgrass",blackgrass,5
same,Blackgrass plant response rating,blackgrass,5
same,"Plant response rating, Blackgrass",blackgrass; [12],15
same,"Plant response rating, Blackgrass",blackgrass; [13],10
same,"Plant response rating (scale of 0 to 100 where 0 is no effect and 100 is complete control), Soybean",soybean,55
same,Soybean plant response rating,soybean,60
same,"Plant response rating, Soybean",soybean; [12],75
same,"Plant response rating, Soybean",soybean; [13],75
same,"Plant response rating (scale of 0 to 100 where 0 is no effect and 100 is complete control), Barnyardgrass",barnyardgrass,5
same,Barnyardgrass plant response rating,barnyardgrass,5
same,"Plant response rating, Barnyardgrass",barnyardgrass; [12],20
same,"Plant response rating, Barnyardgrass",barnyardgrass; [13],10
same,"Plant response rating (scale of 0 to 100 where 0 is no effect and 100 is complete control), Oilseed Rape",oilseed rape,40
same,Oilseed Rape plant response rating,oilseed rape,45
same,"Plant response rating, Oilseed Rape",oilseed rape; [12],50
same,"Plant response rating, Oilseed Rape",oilseed rape; [13],45
same,"Plant response rating (scale of 0 to 100 where 0 is no effect and 100 is complete control), Kochia",kochia,50
same,Kochia plant response rating,kochia,75
same,"Plant response rating, Kochia",kochia; [12],90
same,"Plant response rating, Kochia",kochia; [13],90
same,"Plant response rating (scale of 0 to 100 where 0 is no effect and 100 is complete control), Velvetleaf",velvetleaf [4],10
same,Velvetleaf plant response rating,velvetleaf [4],15
same,"Plant response rating, Velvetleaf",velvetleaf [4]; [12],35
same,"Plant response rating, Velvetleaf",velvetleaf [4]; [13],25
